# Legend:
# [1] = target: Calcium/calmodulin-dependent protein kinase type II subunit delta (Homo sapiens) (UniProt Q13557); test: Inhibition of human full length CAMK2D expressed in baculovirus assessed as substrate phosphorylation using fluorescence-labelled peptides as substrate at 0.06 uM after 90 mins by microfluidic peptide phosphorylation assay
# [2] = target: Tyrosine-protein kinase Lyn (Homo sapiens) (UniProt P07948); test: Inhibition of human full length LYN expressed in baculovirus assessed as substrate phosphorylation using fluorescence-labelled peptides as substrate at 0.06 uM after 90 mins by microfluidic peptide phosphorylation assay
# Sequence of Tyrosine-protein kinase Lyn (Homo sapiens) (P07948 2-512 limits assumed): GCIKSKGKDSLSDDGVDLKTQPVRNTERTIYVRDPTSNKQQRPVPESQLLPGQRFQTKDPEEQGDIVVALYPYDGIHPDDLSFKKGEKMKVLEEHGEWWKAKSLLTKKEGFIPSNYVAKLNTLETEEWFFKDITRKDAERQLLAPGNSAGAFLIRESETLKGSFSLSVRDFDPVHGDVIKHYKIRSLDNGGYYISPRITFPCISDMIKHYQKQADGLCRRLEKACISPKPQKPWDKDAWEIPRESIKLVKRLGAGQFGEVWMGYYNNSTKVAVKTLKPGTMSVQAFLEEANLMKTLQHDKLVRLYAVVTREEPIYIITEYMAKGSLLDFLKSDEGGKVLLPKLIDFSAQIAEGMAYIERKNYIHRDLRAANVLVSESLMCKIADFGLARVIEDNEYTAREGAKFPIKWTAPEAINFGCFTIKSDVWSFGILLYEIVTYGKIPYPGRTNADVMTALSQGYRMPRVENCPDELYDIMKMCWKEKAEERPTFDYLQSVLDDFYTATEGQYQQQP
# [3] = target: Fibroblast growth factor receptor 3 (Homo sapiens) (UniProt P22607); test: Inhibition of human FGFR3 catalytic domain expressed in baculovirus assessed as substrate phosphorylation using fluorescence-labelled peptides as substrate at 0.06 uM after 90 mins by microfluidic peptide phosphorylation assay
# Sequence of Fibroblast growth factor receptor 3 (Homo sapiens) (P22607 23-806 limits assumed): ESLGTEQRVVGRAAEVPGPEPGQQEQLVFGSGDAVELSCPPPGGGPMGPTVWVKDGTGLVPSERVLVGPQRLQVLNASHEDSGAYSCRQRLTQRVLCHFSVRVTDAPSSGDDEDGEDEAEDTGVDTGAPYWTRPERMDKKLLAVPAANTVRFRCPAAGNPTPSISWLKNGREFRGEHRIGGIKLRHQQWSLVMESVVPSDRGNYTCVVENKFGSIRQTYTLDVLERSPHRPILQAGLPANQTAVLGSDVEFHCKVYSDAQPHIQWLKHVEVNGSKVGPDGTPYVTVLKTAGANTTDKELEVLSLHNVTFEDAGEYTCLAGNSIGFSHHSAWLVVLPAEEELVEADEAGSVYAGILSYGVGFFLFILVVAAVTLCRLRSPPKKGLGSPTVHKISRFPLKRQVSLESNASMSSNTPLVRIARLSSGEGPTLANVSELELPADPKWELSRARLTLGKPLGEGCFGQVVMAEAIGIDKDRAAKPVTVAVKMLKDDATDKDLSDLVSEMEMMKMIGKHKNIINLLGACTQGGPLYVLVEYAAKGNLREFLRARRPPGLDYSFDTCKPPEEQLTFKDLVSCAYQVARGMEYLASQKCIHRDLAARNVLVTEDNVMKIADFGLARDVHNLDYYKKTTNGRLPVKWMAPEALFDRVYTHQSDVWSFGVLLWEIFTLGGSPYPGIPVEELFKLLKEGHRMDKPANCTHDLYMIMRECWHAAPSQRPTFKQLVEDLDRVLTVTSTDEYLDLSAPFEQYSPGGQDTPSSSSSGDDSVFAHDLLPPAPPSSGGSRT
# [4] = target: T1, Serine/threonine-protein kinase D2 (Homo sapiens) (UniProt Q9BZL6); test: Inhibition of human full length PKD2 expressed in baculovirus assessed as substrate phosphorylation using fluorescence-labelled peptides as substrate at 0.06 uM after 90 mins by microfluidic peptide phosphorylation assay
# T1 sequence (whole entry): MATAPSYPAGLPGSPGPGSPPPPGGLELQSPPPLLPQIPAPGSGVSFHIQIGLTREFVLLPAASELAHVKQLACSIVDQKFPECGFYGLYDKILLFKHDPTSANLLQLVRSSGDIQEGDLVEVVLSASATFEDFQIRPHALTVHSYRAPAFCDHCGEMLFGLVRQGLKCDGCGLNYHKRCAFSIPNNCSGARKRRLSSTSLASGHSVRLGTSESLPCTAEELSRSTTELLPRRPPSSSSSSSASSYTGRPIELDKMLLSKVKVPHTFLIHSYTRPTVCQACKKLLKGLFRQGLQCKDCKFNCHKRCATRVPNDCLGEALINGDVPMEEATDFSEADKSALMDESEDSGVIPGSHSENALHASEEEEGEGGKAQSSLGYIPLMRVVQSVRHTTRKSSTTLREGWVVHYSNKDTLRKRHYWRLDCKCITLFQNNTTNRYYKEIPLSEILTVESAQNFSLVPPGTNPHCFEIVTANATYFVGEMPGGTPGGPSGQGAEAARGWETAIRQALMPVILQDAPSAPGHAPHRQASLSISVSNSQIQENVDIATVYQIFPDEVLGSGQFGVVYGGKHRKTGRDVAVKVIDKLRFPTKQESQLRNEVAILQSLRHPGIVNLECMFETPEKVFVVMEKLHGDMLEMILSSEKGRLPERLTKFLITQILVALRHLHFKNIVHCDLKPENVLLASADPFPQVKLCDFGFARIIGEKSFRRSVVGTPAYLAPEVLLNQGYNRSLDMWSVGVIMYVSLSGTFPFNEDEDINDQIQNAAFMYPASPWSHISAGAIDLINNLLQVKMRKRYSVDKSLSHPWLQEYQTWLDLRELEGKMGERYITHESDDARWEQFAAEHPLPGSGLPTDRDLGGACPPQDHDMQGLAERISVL
# [5] = test system: T2, Receptor-type tyrosine-protein kinase FLT3 (Homo sapiens), P36888 [D835Y]; test: Inhibition of human FLT3 D835Y mutant catalytic domain expressed in baculovirus assessed as substrate phosphorylation using fluorescence-labelled peptides as substrate at 0.2 uM after 90 mins by microfluidic peptide phosphorylation assay
# T2 sequence (whole entry): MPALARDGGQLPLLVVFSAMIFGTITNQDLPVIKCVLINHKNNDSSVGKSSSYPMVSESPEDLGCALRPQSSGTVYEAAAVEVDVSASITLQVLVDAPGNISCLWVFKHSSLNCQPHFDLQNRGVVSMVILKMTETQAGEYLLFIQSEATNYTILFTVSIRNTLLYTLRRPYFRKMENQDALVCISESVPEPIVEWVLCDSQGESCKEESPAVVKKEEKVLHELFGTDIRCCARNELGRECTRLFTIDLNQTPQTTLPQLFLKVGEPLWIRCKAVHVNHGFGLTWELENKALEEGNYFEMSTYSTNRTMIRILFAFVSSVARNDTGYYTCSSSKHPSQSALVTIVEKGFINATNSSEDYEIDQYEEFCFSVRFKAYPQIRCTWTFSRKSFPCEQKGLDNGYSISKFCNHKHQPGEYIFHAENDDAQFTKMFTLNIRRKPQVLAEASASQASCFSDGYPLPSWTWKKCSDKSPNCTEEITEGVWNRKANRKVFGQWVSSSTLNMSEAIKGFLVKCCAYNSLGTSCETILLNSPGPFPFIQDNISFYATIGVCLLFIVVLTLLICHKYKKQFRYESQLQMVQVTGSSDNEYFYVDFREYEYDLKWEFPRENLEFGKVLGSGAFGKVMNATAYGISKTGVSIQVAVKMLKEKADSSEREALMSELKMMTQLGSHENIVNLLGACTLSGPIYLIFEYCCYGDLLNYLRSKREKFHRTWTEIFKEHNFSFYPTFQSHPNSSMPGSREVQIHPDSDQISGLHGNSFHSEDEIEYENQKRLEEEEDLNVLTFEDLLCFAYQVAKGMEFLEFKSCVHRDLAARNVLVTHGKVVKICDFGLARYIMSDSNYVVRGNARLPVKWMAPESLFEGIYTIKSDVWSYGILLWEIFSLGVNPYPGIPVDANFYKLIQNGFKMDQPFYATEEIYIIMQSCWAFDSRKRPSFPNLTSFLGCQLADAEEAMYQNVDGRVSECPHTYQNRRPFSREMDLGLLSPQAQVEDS
# [6] = target: Mitogen-activated protein kinase kinase kinase kinase 4 (Homo sapiens) (UniProt O95819); test: Inhibition of human HGK catalytic domain expressed in baculovirus assessed as substrate phosphorylation using fluorescence-labelled peptides as substrate at 95 uM after 90 mins by microfluidic peptide phosphorylation assay
# Sequence of Mitogen-activated protein kinase kinase kinase kinase 4 (Homo sapiens) (O95819 2-1239 limits assumed): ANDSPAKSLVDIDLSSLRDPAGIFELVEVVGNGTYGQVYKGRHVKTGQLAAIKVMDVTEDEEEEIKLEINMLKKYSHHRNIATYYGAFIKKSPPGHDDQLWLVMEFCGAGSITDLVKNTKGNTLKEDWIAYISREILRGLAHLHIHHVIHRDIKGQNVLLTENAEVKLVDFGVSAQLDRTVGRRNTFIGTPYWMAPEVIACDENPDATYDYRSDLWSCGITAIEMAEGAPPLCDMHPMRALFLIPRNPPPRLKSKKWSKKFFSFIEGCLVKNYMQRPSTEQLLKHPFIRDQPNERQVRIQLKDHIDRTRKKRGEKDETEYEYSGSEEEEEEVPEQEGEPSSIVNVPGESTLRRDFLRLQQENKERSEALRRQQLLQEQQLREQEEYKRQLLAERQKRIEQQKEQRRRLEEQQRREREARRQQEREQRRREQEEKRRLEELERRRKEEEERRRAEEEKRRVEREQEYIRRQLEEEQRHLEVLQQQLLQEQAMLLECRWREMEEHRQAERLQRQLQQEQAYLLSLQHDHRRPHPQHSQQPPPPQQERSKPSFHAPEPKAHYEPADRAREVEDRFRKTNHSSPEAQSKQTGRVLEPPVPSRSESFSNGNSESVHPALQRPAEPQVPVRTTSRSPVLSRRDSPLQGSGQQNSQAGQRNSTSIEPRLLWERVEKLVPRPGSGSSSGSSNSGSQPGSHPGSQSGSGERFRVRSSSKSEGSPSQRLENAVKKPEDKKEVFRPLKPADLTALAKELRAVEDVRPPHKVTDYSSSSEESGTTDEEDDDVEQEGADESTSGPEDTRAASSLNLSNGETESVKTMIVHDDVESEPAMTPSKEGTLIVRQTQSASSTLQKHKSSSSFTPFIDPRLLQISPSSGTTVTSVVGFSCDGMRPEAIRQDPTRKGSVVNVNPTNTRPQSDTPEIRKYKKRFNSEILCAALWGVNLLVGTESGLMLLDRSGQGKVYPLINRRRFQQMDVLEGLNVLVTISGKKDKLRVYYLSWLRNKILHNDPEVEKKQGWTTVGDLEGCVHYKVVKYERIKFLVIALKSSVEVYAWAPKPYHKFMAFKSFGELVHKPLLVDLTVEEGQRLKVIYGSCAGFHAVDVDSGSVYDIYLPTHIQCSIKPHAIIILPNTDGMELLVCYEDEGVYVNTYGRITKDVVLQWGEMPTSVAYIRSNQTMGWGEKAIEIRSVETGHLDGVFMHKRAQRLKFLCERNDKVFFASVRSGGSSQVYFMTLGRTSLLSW
# [7] = target: MAP/microtubule affinity-regulating kinase 3 (Homo sapiens) (UniProt P27448); test: Inhibition of human full length c-TAK1 expressed in Escherichia coli cell assessed as substrate phosphorylation using fluorescence-labelled peptides as substrate at 420 uM after 90 mins by microfluidic peptide phosphorylation assay
# Sequence of MAP/microtubule affinity-regulating kinase 3 (Homo sapiens) (P27448 whole entry, looked up): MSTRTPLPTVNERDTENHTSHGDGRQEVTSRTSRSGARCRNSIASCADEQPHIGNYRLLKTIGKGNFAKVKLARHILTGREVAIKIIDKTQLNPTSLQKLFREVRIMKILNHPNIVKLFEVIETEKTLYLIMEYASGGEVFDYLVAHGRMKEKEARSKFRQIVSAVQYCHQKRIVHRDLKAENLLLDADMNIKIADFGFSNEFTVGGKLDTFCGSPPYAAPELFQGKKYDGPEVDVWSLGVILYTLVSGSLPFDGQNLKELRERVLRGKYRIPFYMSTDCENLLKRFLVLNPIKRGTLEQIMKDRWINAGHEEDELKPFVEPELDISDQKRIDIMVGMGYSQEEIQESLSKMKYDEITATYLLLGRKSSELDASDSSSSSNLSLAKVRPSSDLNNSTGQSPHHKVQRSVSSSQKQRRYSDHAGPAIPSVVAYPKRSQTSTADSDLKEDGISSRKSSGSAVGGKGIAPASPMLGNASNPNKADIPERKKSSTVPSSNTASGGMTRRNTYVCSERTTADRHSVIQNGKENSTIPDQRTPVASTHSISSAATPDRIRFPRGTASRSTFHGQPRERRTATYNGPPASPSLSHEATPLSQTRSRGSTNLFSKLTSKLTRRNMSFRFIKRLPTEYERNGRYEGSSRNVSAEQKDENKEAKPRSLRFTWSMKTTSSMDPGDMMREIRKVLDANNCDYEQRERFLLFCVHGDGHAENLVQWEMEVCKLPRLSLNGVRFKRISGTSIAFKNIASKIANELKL
# Sequence of Calcium/calmodulin-dependent protein kinase type II subunit delta (Homo sapiens) (Q13557 whole entry): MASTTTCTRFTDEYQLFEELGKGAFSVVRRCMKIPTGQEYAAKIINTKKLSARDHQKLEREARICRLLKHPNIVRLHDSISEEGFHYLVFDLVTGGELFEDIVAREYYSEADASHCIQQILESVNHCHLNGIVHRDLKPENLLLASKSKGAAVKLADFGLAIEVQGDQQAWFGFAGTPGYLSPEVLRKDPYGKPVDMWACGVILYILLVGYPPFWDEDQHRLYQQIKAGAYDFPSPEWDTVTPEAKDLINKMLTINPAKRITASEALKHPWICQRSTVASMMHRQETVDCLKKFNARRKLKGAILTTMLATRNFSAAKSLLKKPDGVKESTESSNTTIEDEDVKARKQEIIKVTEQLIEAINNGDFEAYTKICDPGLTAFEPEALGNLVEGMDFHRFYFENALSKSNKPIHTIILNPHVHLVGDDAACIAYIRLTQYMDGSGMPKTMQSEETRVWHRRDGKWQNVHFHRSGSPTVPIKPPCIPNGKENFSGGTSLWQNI
smiles,measurement,setting,value
NC1(Cc2ccc(Cl)cc2)CCN(c2ncnc3[nH]ccc23)CC1,inhibition,[1],0%
same,inhibition,[2],0%
same,inhibition,[3],0%
same,inhibition,[4],1.5%
Clc1ccc(C2(c3ccc(-c4ncnc5[nH]cnc45)cc3)CCNCC2)cc1,inhibition,[5],16%
NCCc1ccc(-c2ncnc3[nH]cnc23)cc1,inhibition,[6],39.5%
c1nc(N2CCOCC2)c2nc[nH]c2n1,inhibition,[7],86.5%
